Results taken from patent US11945790B2 (ImmunoMolecular Therapeutics, Inc., priority 2020, dated 2024).

Molecular target: HLA-DQ2 (Homo sapiens, UniProt P01909+P01920)
Assay: Inhibition of IL-2 secretion by TCR transductants stimulated by α-gliadin peptides presented by HLA-DQ2 expressing K562 cells (ELISA)
Assay type: cell-based
Conditions: inhibition of IL-2 secretion at 200 uM; tested as trans racemate unless otherwise noted; lines naming several Examples = stereoisomer mixture of those Examples
Protocol: Three commercially available analogues of the DQ2 binding molecules of the invention were tested for their ability to inhibit stimulation of T cell receptor (TCR) transductants in the presence of HLA-DQ2 expressing cells presenting known α-gliadin epitopes.
Using a previously published in vitro assay (Ostrov D, et al. Methyldopa blocks MHC class II binding to disease specific antigens in autoimmune diabetes. J Clin Invest. 2018:128 (5)) the ability of these DQ2 binding analogues to inhibit interleukin-2 (IL-2) secretion by TCR transductants stimulated by α-gliadin peptides presented by HLA-DQ2 was determined. Individual TCR transductants (recognizing a I-gliadin or a II-gliadin) were cultured with a gliadin peptide plus the small molecule analogues in the presence of HLA-DQ2 expressing K562 cells serving as antigen presenting cells. TCR transductants cultured with no gliadin peptide served as the negative control, and incubation with an anti-CD3 antibody (eBioscience; clone 2C11) served as a positive control for the TCR transductant. Secreted IL-2 in the culture supernatant was measured using a highly sensitive enzyme-linked immunosorbent assay (ELISA). […] Assays for effects on cell viability and for specificity, assayed in the absence of gliadin peptide or in the presence of a stimulating anti-CD3 antibody, were performed. Unless otherwise noted, the stereochemistry shown below represents the relative configuration. Further, unless otherwise noted, compounds were tested as the trans racemate.

Sequence of HLA-DQ2 (P01920 33-261 limits assumed, other chains not shown): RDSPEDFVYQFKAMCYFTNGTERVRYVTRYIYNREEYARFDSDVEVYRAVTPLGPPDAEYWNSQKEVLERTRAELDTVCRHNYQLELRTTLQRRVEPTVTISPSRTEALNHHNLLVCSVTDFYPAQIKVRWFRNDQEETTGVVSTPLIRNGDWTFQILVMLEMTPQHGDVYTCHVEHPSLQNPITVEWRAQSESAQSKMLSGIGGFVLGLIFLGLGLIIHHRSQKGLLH

Structure (SMILES) | % Inh at 200 uM
Cc1ccc(C)c(SCC(=O)N2CCN(C(=O)[C@@H]3C[C@H]3c3ccccc3)CC2)c1 (relative stereo) [Example 55, 2-((2,5-Dimethylphenyl)thio)-1-(4-(trans-2-phenylcyclo-propanecarbonyl)piperazin-1-yl)-ethanone] | B (B=50-74%)
CCOc1ccccc1C(=O)N1CCN(C(=O)C2CC2c2ccc3c(c2)OCO3)CC1 (stereo not drawn) [Example 17] | C (C=25-49%)
COC(=O)c1ccccc1OCC(=O)N1CCN(C(=O)[C@@H]2C[C@H]2c2ccccc2)CC1 [Example 100] | C (C=25-49%)
O=C(CSc1ccc(O)cc1)N1CCN(C(=O)[C@@H]2C[C@H]2c2ccccc2)CC1 [Example 76] | C (C=25-49%)
O=C(O)CCCSCC(=O)N1CCN(C(=O)[C@@H]2C[C@H]2c2ccccc2)CC1 [Example 114] | D (D=0-24%)
O=C(CN1CCCC1=O)N1CCN(C(=O)[C@@H]2C[C@H]2c2ccccc2)CC1 [Example 115] | D (D=0-24%)
O=C(O)CCCNCC(=O)N1CCN(C(=O)[C@@H]2C[C@H]2c2ccccc2)CC1 [Example 113] | D (D=0-24%)
O=C(COC1CCCCC1)N1CCN(C(=O)C2CC2c2ccccc2)CC1 (stereo not drawn) [Example 40, 2-(Cyclohexyloxy)-1-(4-((trans-2-phenylcyclopropanecarbonyl)-piperazin-1-yl)ethanone] | B (B=50-74%)
O=C(CSc1ccccc1)N1CCN(C(=O)[C@@H]2C[C@H]2c2ccccc2)CC1 (relative stereo) [Example 49, 1-(4-(Trans-2-phenylcyclopropane-1-carbonyl)piperazin-1-yl)-2-(phenylthio) ethan-1-one] | C (C=25-49%)
Cc1ccc(SCC(=O)N2CCN(C(=O)[C@@H]3C[C@H]3c3ccccc3)CC2)cc1 [Example 53] | B (B=50-74%)
Cc1cc(Cl)ccc1SCC(=O)N1CCN(C(=O)[C@@H]2C[C@H]2c2ccccc2)CC1 (relative stereo) [Example 72, 2-((4-Chloro-2-methylphenyl)thio)-1-(4-(trans-2-phenylcyclo-propanecarbonyl)piperazin-1-yl) ethanone] | A (A=≥75%)
O=C(c1ccco1)N1CCN(C(=O)C2CC2c2ccc3c(c2)OCO3)CC1 (stereo not drawn) [Example 7] | B (B=50-74%)
Cc1noc(C)c1CCC(=O)N1CCN(C(=O)C2CC2c2ccc3c(c2)OCO3)CC1 (stereo not drawn) [Example 15] | C (C=25-49%)
O=C(CSC1CCCC1)N1CCN(C(=O)[C@H]2C[C@@H]2c2cccc(O)c2)CC1 [Example 29] | B (B=50-74%)
COc1ccc(SCC(=O)N2CCN(C(=O)[C@@H]3C[C@H]3c3ccccc3)CC2)cc1 [Example 75] | B (B=50-74%)
O=CNc1ccccc1SCC(=O)N1CCN(C(=O)[C@@H]2C[C@H]2c2ccccc2)CC1 [Example 86] | C (C=25-49%)
NC(=O)c1cccc(OCC(=O)N2CCN(C(=O)[C@@H]3C[C@H]3c3ccccc3)CC2)c1 [Example 91] | B (B=50-74%)
O=C(CSC1CCCC1)N1CCN(C(=O)[C@H]2C[C@@H]2c2ccc(O)cc2)CC1 [Example 30] | D (D=0-24%)
Cc1cccc(SCC(=O)N2CCN(C(=O)[C@@H]3C[C@H]3c3ccccc3)CC2)c1 [Example 51] | A (A=≥75%)
O=C(C[S+]([O-])C1CCCC1)N1CCN(C(=O)C2C[C@@H]2c2ccccc2)CC1 (stereo partly drawn) [Example 80] | B (B=50-74%)

Structure (SMILES) | % Inh at 200 uM
O=C(COC1CCCC1)N1CCN(C(=O)[C@@H]2C[C@H]2c2ccccc2)CC1 [Example 64] | B (B=50-74%)
COc1cccc(SCC(=O)N2CCN(C(=O)[C@@H]3C[C@H]3c3ccccc3)CC2)c1 [Example 62] | C (C=25-49%)
COc1ccccc1[C@H]1C[C@@H]1C(=O)N1CCN(C(=O)CSC2CCCC2)CC1 [Example 34] | B (B=50-74%)
COC(=O)c1cccc(OCC(=O)N2CCN(C(=O)[C@@H]3C[C@H]3c3ccccc3)CC2)c1 [Example 101] | A (A=≥75%)
Cc1nnsc1C(=O)N1CCN(C(=O)C2CC2c2ccc3c(c2)OCO3)CC1 (stereo not drawn) [Example 9] | C (C=25-49%)
CCCCSCC(=O)N1CCN(C(=O)[C@@H]2C[C@H]2c2ccccc2)CC1 (relative stereo) [Example 47, 2-(Butylthio)-1-(4-(trans-2-phenylcyclopropane-carbonyl)piperazin-1-yl)ethanone] | B (B=50-74%)
O=C(CSc1ccc(Cl)cc1F)N1CCN(C(=O)[C@@H]2C[C@H]2c2ccccc2)CC1 (relative stereo) [Example 103, 2-((4-Chloro-2-fluorophenyl)thio)-1-(4-(trans-2-phenylcyclo-propane-1-carbonyl)piperazin-1-yl) ethan-1-one] | A (A=≥75%)
O=C(O)CCNCC(=O)N1CCN(C(=O)[C@@H]2C[C@H]2c2ccccc2)CC1 [Example 111] | D (D=0-24%)
O=C(CSc1ccccc1Cl)N1CCN(C(=O)[C@@H]2C[C@H]2c2ccccc2)CC1 (relative stereo) [Example 60, 2-((2-Chlorophenyl)thio)-1-(4-(trans-2-phenylcyclopropane-1-carbonyl)piperazin-1-yl) ethan-1-one] | B (B=50-74%)
Cc1ccc(SCC(=O)N2CCN(C(=O)[C@@H]3C[C@H]3c3ccccc3)CC2)c(Cl)c1 (relative stereo) [Example 84, 2-((2-Chloro-4-methylphenyl)thio)-1-(4-(trans-2-phenylcyclo-propanecarbonyl)piperazin-1-yl) ethanone] | A (A=≥75%)
Cc1cc(F)ccc1SCC(=O)N1CCN(C(=O)[C@@H]2C[C@H]2c2ccccc2)CC1 (relative stereo) [Example 61, 2-((4-Fluoro-2-methylphenyl)thio)-1-(4-(trans-2-phenylcyclopropanecarbonyl)-piperazin-1-yl)ethanone] | B (B=50-74%)
O=C(CSC1CCCCC1)N1CCN(C(=O)[C@@H]2C[C@H]2c2ccccc2)CC1 [Example 41, 2-(Cyclohexylthio)-1-(4-((1R, 2R)-2-phenylcyclopropane-1-carbonyl)piperazin-1-yl) ethan-1-one] | B (B=50-74%)
O=C(COc1ccccc1O)N1CCN(C(=O)[C@@H]2C[C@H]2c2ccccc2)CC1 [Example 105] | B (B=50-74%)
O=C(O)c1cccc(OCC(=O)N2CCN(C(=O)[C@@H]3C[C@H]3c3ccccc3)CC2)c1 [Example 107] | D (D=0-24%)
CC(C)c1ccc(SCC(=O)N2CCN(C(=O)[C@@H]3C[C@H]3c3ccccc3)CC2)cc1 (relative stereo) [Example 54, 2-((4-Isopropylphenyl)thio)-1-(4-(trans-2-phenylcyclopropane-1-carbonyl)piperazin-1-yl) ethan-1-one] | B (B=50-74%)
O=C(CNC1CCCC1)N1CCN(C(=O)[C@H]2CC2c2ccccc2)CC1 (stereo partly drawn) [Example 81] | A (A=≥75%)
CCCCOCC(=O)N1CCN(C(=O)[C@@H]2C[C@H]2c2ccccc2)CC1 (relative stereo) [Example 46, 2-Butoxy-1-(4-(trans-2-phenylcyclopropanecarbonyl)piperazin-1-yl) ethanone] | B (B=50-74%)
COc1ccc([C@H]2C[C@@H]2C(=O)N2CCN(C(=O)CSC3CCCC3)CC2)cc1 [Example 28] | B (B=50-74%)
O=C(O)CCOCC(=O)N1CCN(C(=O)[C@@H]2C[C@H]2c2ccccc2)CC1 [Example 110] | D (D=0-24%)
